Experiment [1] has as its system Mycobacterium avium intracellulare. In words: Agar dilution method, mycobacteria. The class given is cell-based. (In agar dilution, organisms are placed on agar that contains the substance at set levels.)
A further experiment concerns Prevotella bivia. In words: Agar dilution MIC, anaerobes. In kind it is cell-based. The note with it: Prevotella bivia; single isolate, anaerobic agar dilution; read-out: MIC Prevotella bivia.
A further experiment concerns anaerobic bacteria. In words: Agar dilution method for anaerobic bacteria, summary. The class given is cell-based.
A further experiment concerns S. aureus. The experiment is described as follows: Summary of in vitro activity (MIC). The note with it: Staphylococcus aureus.
The subject of another experiment is P. acnes. The experiment is described as follows: Agar dilution MIC, anaerobes. The class given is cell-based. The following applies: Cutibacterium acnes, single isolates, anaerobic agar dilution; read-out: MIC P. acnes.
The test system of a further experiment is MRSA 15187. In words: MIC, agar incorporation method. The note with it: Staphylococcus aureus, MRSA, read-out: MIC MRSA 15187.
The subject of another experiment is Fusobacterium necrogenes. In words: Agar dilution MIC, anaerobes. The following applies: Fusobacterium necrogenes; single isolate, anaerobic agar dilution; read-out: MIC Fusobacterium necrogenes. In kind it is cell-based.
Experiment [2] concerns Peptostreptococcus prevotii. In words: Agar dilution MIC, anaerobes. In kind it is cell-based. The following applies: Anaerococcus prevotii, single isolates, anaerobic agar dilution; read-out: MIC Peptostreptococcus prevotii.
For the next experiment, the system named is Clostridium camis. In words: Agar dilution MIC, anaerobes. The class given is cell-based. The note with it: Clostridium; single isolates, anaerobic agar dilution; read-out: MIC Clostridium camis.
A further experiment has as its system S. pneum AB 34. In words: MIC, agar incorporation method. The note with it: Streptococcus pneumoniae, AB34, read-out: MIC S. pneum AB 34.
For experiment [3], the system named is Peptostreptococcus tetradius. In words: Agar dilution MIC, anaerobes. In kind it is cell-based. The following applies: Anaerococcus tetradius, single isolates, anaerobic agar dilution; read-out: MIC Peptostreptococcus tetradius.
In a further experiment the test system is Porphyromonas gingivalis. The experiment is described as follows: Agar dilution MIC, anaerobes. In kind it is cell-based. The following applies: Porphyromonas gingivalis; single isolate, anaerobic agar dilution; read-out: MIC Porphyromonas gingivalis.

Values after ≈ are worked out from the molar mass of the structure shown.

In general, MIC50 refers to an inhibitory concentration at the 50% level, which refers to growth in some studies and to a panel of isolates in others. What is called MIC90 is an inhibitory concentration at the 90% level, which refers to growth in some studies and to a panel of isolates in others. For orientation: MIC means the lowest concentration that inhibits growth of the organism. The molecule `CC(=O)NC[C@H]1CN(c2ccc(N3CCOCC3)c(F)c2)C(=O)O1` [Linezolid] yielded a G.M. in [1] of 20.587 µg/mL. The MIC50 in [1] (Mycobacterium avium, 504 h, Middlebrook 7H10 agar, 21 days, read-out: MIC50) was 16 µg/mL (≈ 47.4 µM); in the experiment with anaerobic bacteria (48 h) it was 1 µg/mL (≈ 2.96 µM); against S. aureus, 2 µg/mL (≈ 5.93 µM). The MIC90 in [1] (Mycobacterium avium, 504 h, Middlebrook 7H10 agar, 21 days, read-out: MIC90) came to 64 µg/mL (≈ 190 µM); in the experiment with anaerobic bacteria (48 h), 4 µg/mL (≈ 11.9 µM); in the experiment with S. aureus, 4 µg/mL (≈ 11.9 µM). The MIC in the experiment on Prevotella bivia was 1 µg/mL (≈ 2.96 µM); with S. aureus (read-out: Geometric Mean of in vitro activity (MIC)), 2.38 µg/mL (≈ 7.05 µM); in the experiment with P. acnes, 0.5 µg/mL (≈ 1.48 µM); with MRSA 15187, 1 µg/mL (≈ 2.96 µM); in the experiment on Fusobacterium necrogenes, 0.5 µg/mL (≈ 1.48 µM); in experiment [2], 0.5 µg/mL (≈ 1.48 µM). In addition, the MIC in the experiment with Clostridium camis came to 2 µg/mL (≈ 5.93 µM); with S. pneum AB 34 it was 4 µg/mL (≈ 11.9 µM); in experiment [3] it was 0.5 µg/mL (≈ 1.48 µM); in the experiment on Porphyromonas gingivalis, 1 µg/mL (≈ 2.96 µM). Also, in the experiment with anaerobic bacteria (anaerobes), the “Geometric Mean” value stood at 1.134 µg/mL. The “MIC Range” value against anaerobic bacteria (anaerobes) fell in the range of 0.25 to 4 µg/mL.

The values are drawn from patent US20040254162A1, “Oxazolidinone derivatives as antimicrobials” (priority 2001, published 2004).
